Legend:
GPR174 [1] = molecular target: T1, GPR174 (Homo sapiens, UniProt Q9BXC1); experiment: CRA (EC50) of GPR174 inhibitor compounds, tested as described in US 20200276190; type: cell-based; details: multiple values = separate experiments
Description: (§1) Where present, multiple EC50 values correspond to values obtained in separate experiments. […] The activity of the compounds was tested as described in US 20200276190, the disclosure of which is incorporated herein by reference.

human CD8 T cells [2] = experiment: Example 3: human CD8 T cell 10-day expansion with IL-7+IL-15 and inhibitors, IL-2 after restimulation; type: cell-based; details: 300 nM Compound #10, 500 nM Compound #49, 100 nM ZM-241385, 18 hours restimulation
Description: (§2) Purified human CD8 T cells were cultured in 24-well plates with the following conditions per well: • 2 mL X-VIVO™ 15 media (Lonza) • 1 million human CD8 T cells • 2 million Human T-Activator CD3/CD28 Dynabeads® (ThermoFisher) • 10 ng/mL human IL-7 (R&D Systems) • 10 ng/mL human IL-15 (R&D Systems)
and the following individual conditions for FIG. 4: • 1. DMSO vehicle control • 2. […] 300 nM GPR174 inhibitor Compound #10 • 4.
On days 4 and 7 (FIG. 4) or days 3, 5, and 7 (FIG. 5), cultures were washed and seeded at 0.5 cells million per well with the same GPR174 and A2A inhibitor conditions, and with 10 ng/mL IL-7 and 10 ng/mL IL-15.
After 18 hours of culture, supernatants were harvested and analyzed for IL-2 (MesoScale Discovery).

GPR174 [3] = molecular target: T1, GPR174; experiment: Human GPR174 CRE activity / Gs signaling; type: cell-based
Description: as §1

human CD8 T cells [4] = experiment: Example 5: human CD8 T cell expansion with cAMP pathway and p38 inhibitors, IL-2 after restimulation; type: cell-based; details: 500 μM Rp-8-Br-cAMPS, 0.5 μM doramapimod; for IL-2 production following restimulation, fold above vehicle control (FIG. 8): 10 μM HJC-0197, 5 μM ESI-09
Description: (§3) DMSO vehicle control • 2. […] 500 μM Rp-8-Br-cAMPS • 4. […] 0.5 μM doramapimod • 6. Media control
(§4) or the following individual conditions for the experiment shown in FIG. 8, each ±0.5 μM doramapimod: • 1. DMSO vehicle control • 2. 500 μM Rp-8-Br-cAMPS • 3. […] 5 μM ESI-09
(§5) On days 3, 5, and 7, cultures were washed and seeded at 0.5 cells million per well with the same small molecule inhibitor conditions, and with IL-7 and IL-15. On day 10, cells were washed twice (12 mL media each), and restimulated in quadruplicate in 96-well round-bottom plates with the following conditions: • 0.1 mL X-VIVO™ 15 media (Lonza) • 0.05 million cells from each condition • 0.1 million Human T-Activator CD3/CD28 Dynabeads® (ThermoFisher)
(§6) After overnight culture, supernatants were harvested and analyzed for IL-2 content (MesoScale Discovery).

human CD8 T cells [5] = experiment: Example 5: T cell number increase during 10-day expansion; type: cell-based
Description: as §3, §4, §5

human CD8 T cells [6] = experiment: Example 4: human CD8 T cell expansion with GPR174, A2A, PKA or EPAC inhibitors, IL-2 after restimulation; type: cell-based; details: 300 nM Compound #10, 100 nM ZM-241385, 500 μM Rp-8-Br-cAMPS, 5 μM ESI-09; 5.5 hours restimulation
Description: as §2, with “(Lonza) • 0.4 million human” for “(Lonza) • 1 million human”, “T cells (Donor A) • 2” for “T cells • 2”
and the following individual conditions, ±300 nM Compound #10: • 1. DMSO vehicle control • 2. […] 500 μM Rp-8-Br-cAMPS • 4. 5 μM ESI-09
On days 3, 5, and 7, cultures were washed and seeded at 0.5 cells million per well with the same small molecule inhibitor conditions, and with IL-7 and IL-15.
After 5.5 hours of culture, supernatants were harvested and analyzed for IL-2 content (MesoScale Discovery).

EG7 tumors = experiment: Example 7: adoptive transfer of inhibitor-precultured OT-1 T cells into EG7 tumor-bearing mice; type: in vivo, mouse
Description: (§7) and the following individual conditions: • 1. DMSO vehicle control • 2. 0.2 μM doramapimod • 3. 500 μM Rp-8-Br-cAMPS • 4. 0.2 μM doramapimod+500 μM Rp-8-Br-cAMPS
On day 6 cells were seeded in 6-well plates with […] per well, and on day 8 cells were seeded in T75 flasks in 30 mL media to obtain enough cells to transfer into EG7 tumor-bearing mice.
C57BL/6 female mice were implanted with 6 million EG7 tumor cells subcutaneously on day 4 of the OT-1 T cell expansion. On day 6 of tumor growth (day 10 of OT-1 T cell expansion) OT-1 T cells were washed and injected retro-orbitally into tumor bearing mice that had been sorted into 4 groups with equal tumor volume distributions (n=8). Via retroorbital injection, mice received 2 million OT1 T cells of each of the 4 culture conditions. Tumor volume (mm^3) was calculated as 0.5×(length×width^2), where length represents the largest tumor diameter and width represents the perpendicular tumor diameter. Mice were euthanized when the sum of the two measurements exceeded 30 mm.

[7] = system: OT-I TCR transgenic CD8 T cells; experiment: Example 6: OT-I CD8 T cell expansion with PKA and p38 inhibitors, IL-2 after restimulation with EG7 cells; type: cell-based, mouse; details: 0.2 μM doramapimod, 500 μM Rp-8-Br-cAMPS
Description: as §7
On day 8, cells were immunophenotyped with the following antibodies: anti-CD8 BV570, anti-CD62L eFluor450, anti-TCF1/TCF7 PE, anti-CD39 PerCP-eFluor710, anti-CD69 BV605, anti-PD-1 BV711, anti-CTLA-4 APC, and LIVE/DEAD™ Fixable Green Dead Cell Stain.
as §6

[8] = system: OT-I TCR transgenic CD8 T cells; experiment: Example 6: immunophenotyping of OT-I T cells on day 8; type: cell-based, mouse; details: 8 days of culture
Description: as §7
On days 2, 4, 6, and 8, cells were counted, washed, and reseeded at 0.5 million per well in 2 mL media with the same 4 doramapimod/Rp-8-Br-cAMPS conditions and with recombinant mouse IL-2 and IL-7 (5 ng/mL each). On day 8, cells were immunophenotyped with the following antibodies: anti-CD8 BV570, anti-CD62L eFluor450, anti-TCF1/TCF7 PE, anti-CD39 PerCP-eFluor710, anti-CD69 BV605, anti-PD-1 BV711, anti-CTLA-4 APC, and LIVE/DEAD™ Fixable Green Dead Cell Stain.

[9] = system: OT-I TCR transgenic CD8 T cells; experiment: Example 8: OT-I CD8 T cell 9-day expansion with PKA, p38, PI3Kδ inhibitors, IL-2 after restimulation with EG7 cells; type: cell-based, mouse
Description: DMSO vehicle control • 2. 0.5 μM doramapimod • 3. 500 μM Rp-8-Br-cAMPS • 4. 0.5 μM doramapimod+500 μM Rp-8-Br-cAMPS • 5. 1 μM idelalisib • 6. 1 μM idelalisib+0.5 μM doramapimod • 7. 1 μM idelalisib+500 μM Rp-8-Br-cAMPS • 8. 1 μM idelalisib+0.5 μM doramapimod+500 μM Rp-8-Br-cAMPS
On days 2, 4, 6, and 8, cells were counted, washed and reseeded at 0.5 million per well in 2 mL media with the same 8 conditions and with recombinant mouse IL-2 and IL-7 (5 ng/mL each). […] Cells were also washed three times (12 mL media each), and restimulated in quintuplicate in 96-well round-bottom plates with the following conditions: • 0.1 mL RP10 media • 0.05 million OT-I T cells from each condition • 0.05 million EG7 cells
as §6

[10] = system: OT-I TCR transgenic CD8 T cells; experiment: Example 9: OT-I CD8 T cell 10-day expansion, immunophenotyping and IL-2 capacity; type: cell-based, mouse
[11] = Idelalisib (agent together with 1 μM idelalisib)

T1 sequence (Q9BXC1 whole entry): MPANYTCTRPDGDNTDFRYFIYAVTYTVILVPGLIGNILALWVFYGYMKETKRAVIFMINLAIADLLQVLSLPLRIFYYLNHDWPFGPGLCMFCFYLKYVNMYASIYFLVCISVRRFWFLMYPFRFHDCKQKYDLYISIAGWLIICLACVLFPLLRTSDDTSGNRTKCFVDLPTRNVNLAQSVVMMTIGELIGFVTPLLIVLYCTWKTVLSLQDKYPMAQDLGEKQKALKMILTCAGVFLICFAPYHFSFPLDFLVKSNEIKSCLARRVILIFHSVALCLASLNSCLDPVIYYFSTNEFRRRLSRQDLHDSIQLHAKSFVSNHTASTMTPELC

SMILES: CCOc1ccc(C2C3=C(CCCC3=O)NC3=C2C(=O)c2ccccc23)cc1 (stereo not shown) [Compound 23]
- EC50 (GPR174 [1]): 2.9 µM

SMILES: CC(C)Oc1ccc(C2C3=C(CCCC3=O)NC3=C2C(=O)c2ccccc23)cc1 (stereo not shown) [Compound 49]
- IL-2 production following restimulation, fold vs vehicle (FIG. 5) (human CD8 T cells [2]): 1.9 fold

SMILES: O=C(N/N=C/c1cc(Cl)ccc1O)c1ccncc1 [Compound 57]
- Human GPR174 CRE Activity (type of modulation) (GPR174 [3]): Antagonist or allosteric modulator

SMILES: Cc1cc(C(=O)N/N=C/c2cc(Br)ccc2O)c(C)o1 [Compound 58]
- Human GPR174 CRE Activity (type of modulation) (GPR174 [3]): Antagonist or allosteric modulator

SMILES: S=C(NCc1ccco1)Nc1ccc(I)cc1 [Compound 59]
- Human GPR174 CRE Activity (type of modulation) (GPR174 [3]): NM (“NM” refers to “non-modulator.”)

SMILES: CC(C)(C)c1cc(C(=O)/C(C#N)=N/Nc2cccc(Cl)c2)no1 [ESI-09]
- IL-2 production following restimulation, fold above vehicle control (FIG. 8) (human CD8 T cells [4]): absent or negligible
- T cell growth during the 10-day culture relative to vehicle-treated cells (FIG. 8) (human CD8 T cells [5]): attenuated T cell expansion
- IL-2 production following restimulation, fold increase vs vehicle (FIG. 6) (human CD8 T cells [6]): no impact on IL-2 production

SMILES: Cc1ccc(C)c(CSc2nc(C3CCCC3)c(C#N)c(=O)[nH]2)c1 [HJC-0197]
- IL-2 production following restimulation, fold above vehicle control (FIG. 8) (human CD8 T cells [4]): absent or negligible

SMILES: Cc1ccc(-n2nc(C(C)(C)C)cc2NC(=O)Nc2ccc(OCCN3CCOCC3)c3ccccc23)cc1 [doramapimod]
- IL-2 production following restimulation, fold above vehicle control (FIG. 8) (human CD8 T cells [4]): 1.8 fold
- IL-2 production following restimulation, fold vs vehicle (FIG. 7) (human CD8 T cells [4]; GPR174+A2A inhibitors, overnight restimulation): 3.2 fold
- T cell growth during the 10-day culture relative to vehicle-treated cells (FIG. 8) (human CD8 T cells [5]): very little effect on cell growth
- fold-increase in T cell number during the 10-day expansion (FIG. 7) (human CD8 T cells [5]; vehicle and media controls approximately 50-fold): approximately 50 fold
- tumor growth / tumor volume after transfer of precultured OT-1 T cells (EG7 tumors; 2 million OT-1 T cells expanded 10 days with 0.2 μM doramapimod and/or 500 μM Rp-8-Br-cAMPS, retro-orbital, relative to vehicle control cells): significantly halted and delayed tumor growth
- survival of tumor-bearing mice (EG7 tumors; OT-1 T cells precultured with inhibitor(s), relative to vehicle group): intermediate survival times
- IL-2 production from 8-day OT-I cultures, fold vs vehicle control ([7]; day 8 restimulation with EG7 cells): 4.9 fold
- IL-2 production from 10-day OT-I cultures, fold over vehicle control ([7]; day 10 restimulation with EG7 cells): 6.8 fold
- increase in cells expressing both CD62L and TCF1/TCF7 relative to vehicle control [8]: smaller increases
- percentage of OT-I T cells expressing both CD39 and CD69 ([8]; vehicle 22%): smaller reductions
- Fold-change in IL-2 production relative to Vehicle control [9, 11]: 65.0
- Fold-change in IL-2 production relative to Vehicle control ([9]; column Vehicle (without idelalisib), 0.5 μM doramapimod, 500 μM Rp-8-Br-cAMPS): 2.2

SMILES: CC[C@H](Nc1ncnc2[nH]cnc12)c1nc2cccc(F)c2c(=O)n1-c1ccccc1 [idelalisib]
- TCF-1 positive cells ([10]; Vehicle 10%): 27%
- CTLA-4 positive cells ([10]; Vehicle 41%): 28%
- PD-1 positive cells ([10]; Vehicle 75%): 75%
- CD39 positive cells ([10]; Vehicle 87%): 63%
- TIM-3 positive cells ([10]; Vehicle 88%): 60%
- CD69 positive cells ([10]; Vehicle 95%): 74%
- Fold-change in IL-2 production relative to Vehicle control [9, 11]: 24.0

Source: patent US20230285556A1, “METHODS AND COMPOSITIONS FOR TREATING CANCER” (Omeros Corporation, priority 2021, published 2023)
